Test results: patent publication US6323001A, “Increasing the trehalose content of organisms by transforming them with combinations of the structural genes for trehalose synthase” (BTG International Ltd., priority 1994, dated 2001)
Read-outs that look alike come from different tables or passages of the source.

Target: T1, Tre6Pase activity of intact trehalose synthase (Saccharomyces cerevisiae, UniProt P31688)
T1 construct: Intact trehalose synthase was purified from commercial baker's yeast; made in house; host or cells: commercial baker's yeast (native enzyme purified, not recombinant)
T1 sequence (P31688 1-896): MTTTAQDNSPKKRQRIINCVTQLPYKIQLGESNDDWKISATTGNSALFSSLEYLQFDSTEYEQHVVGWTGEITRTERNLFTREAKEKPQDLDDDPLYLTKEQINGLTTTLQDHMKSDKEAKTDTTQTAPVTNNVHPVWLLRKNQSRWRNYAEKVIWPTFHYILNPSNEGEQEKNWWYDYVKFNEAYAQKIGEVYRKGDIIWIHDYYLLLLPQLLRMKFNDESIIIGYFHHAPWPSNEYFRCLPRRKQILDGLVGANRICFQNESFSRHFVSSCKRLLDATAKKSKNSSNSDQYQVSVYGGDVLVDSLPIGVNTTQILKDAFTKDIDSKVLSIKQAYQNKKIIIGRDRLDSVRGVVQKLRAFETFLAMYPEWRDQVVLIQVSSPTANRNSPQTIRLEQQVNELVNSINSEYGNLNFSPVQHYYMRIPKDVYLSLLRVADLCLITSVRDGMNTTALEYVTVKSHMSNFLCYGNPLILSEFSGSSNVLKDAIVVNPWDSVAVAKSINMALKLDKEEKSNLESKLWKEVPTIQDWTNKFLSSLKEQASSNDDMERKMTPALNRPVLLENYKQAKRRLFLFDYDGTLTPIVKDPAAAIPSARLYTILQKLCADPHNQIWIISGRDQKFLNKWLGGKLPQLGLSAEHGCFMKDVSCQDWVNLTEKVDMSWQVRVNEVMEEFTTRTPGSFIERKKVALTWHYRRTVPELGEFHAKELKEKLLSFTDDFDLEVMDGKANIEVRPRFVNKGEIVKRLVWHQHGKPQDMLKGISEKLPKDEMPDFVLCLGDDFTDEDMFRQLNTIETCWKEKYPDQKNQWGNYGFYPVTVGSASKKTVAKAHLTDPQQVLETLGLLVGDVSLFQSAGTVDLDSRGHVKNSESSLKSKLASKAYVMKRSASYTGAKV
T1 sequence (Q00764 1-495 partner): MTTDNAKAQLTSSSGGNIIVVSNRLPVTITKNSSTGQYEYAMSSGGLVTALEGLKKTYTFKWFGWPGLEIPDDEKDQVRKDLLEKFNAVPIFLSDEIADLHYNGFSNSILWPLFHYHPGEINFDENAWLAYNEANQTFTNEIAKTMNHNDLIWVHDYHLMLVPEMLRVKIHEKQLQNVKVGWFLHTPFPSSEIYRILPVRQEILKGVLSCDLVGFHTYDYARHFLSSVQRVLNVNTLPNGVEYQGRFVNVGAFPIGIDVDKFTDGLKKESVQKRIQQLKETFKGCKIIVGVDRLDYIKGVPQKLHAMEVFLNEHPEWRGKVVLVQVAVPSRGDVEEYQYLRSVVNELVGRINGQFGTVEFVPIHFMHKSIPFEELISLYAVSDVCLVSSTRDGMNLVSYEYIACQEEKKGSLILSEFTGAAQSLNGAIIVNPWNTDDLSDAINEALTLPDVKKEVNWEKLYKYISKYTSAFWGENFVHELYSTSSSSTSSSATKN
T1 sequence (P38427 1-1098 partner): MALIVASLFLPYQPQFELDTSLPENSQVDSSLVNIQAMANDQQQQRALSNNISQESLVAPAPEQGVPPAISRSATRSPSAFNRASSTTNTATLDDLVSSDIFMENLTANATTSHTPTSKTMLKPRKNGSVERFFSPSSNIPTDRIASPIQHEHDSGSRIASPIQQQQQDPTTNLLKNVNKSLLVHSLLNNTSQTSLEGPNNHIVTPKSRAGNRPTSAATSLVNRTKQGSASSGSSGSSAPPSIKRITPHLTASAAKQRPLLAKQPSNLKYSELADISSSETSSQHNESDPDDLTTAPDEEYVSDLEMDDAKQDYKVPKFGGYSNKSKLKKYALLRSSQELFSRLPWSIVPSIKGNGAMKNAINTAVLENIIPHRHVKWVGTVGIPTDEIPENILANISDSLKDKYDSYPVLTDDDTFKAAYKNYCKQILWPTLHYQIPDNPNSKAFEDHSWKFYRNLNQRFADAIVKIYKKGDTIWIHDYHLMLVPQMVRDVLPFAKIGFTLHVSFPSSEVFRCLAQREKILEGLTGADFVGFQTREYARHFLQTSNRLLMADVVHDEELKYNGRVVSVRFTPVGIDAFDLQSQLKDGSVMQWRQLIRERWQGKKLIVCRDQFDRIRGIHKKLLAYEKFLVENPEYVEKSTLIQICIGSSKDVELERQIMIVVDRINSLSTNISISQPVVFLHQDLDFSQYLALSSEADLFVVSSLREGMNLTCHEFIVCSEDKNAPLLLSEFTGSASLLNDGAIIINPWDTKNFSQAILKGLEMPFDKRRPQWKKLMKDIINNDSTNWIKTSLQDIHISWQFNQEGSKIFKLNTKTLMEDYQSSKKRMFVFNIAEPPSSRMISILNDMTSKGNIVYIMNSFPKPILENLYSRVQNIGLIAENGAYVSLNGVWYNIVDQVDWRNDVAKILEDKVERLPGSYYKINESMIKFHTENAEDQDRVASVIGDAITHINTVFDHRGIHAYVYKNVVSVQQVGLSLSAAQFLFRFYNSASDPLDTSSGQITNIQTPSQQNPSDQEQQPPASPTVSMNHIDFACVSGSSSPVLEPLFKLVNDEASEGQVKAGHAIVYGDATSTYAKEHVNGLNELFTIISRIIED
Test: Tre6Pase assay of intact trehalose synthase
Type: biochemical, baker's yeast
Experimental: With microbial materials, Tre6Pase and Tre6P synthase standard assays and other kinetic measurements were made as described by Londesborough & Vuorio [(1991) loc. cit.] except that the standard Tre6P synthase assay mixture contained 5 mM F6P unless stated otherwise.
In one experiment intact trehalose synthase (0.28 Tre6P synthase units, ≈9.4 μg) was incubated with or without 0.5 μg of trypsin at 30° C. in 250 μl of 13 mM HEPES pH 7.0 containing 1 mM MgCl2, 0.5 mM EDTA, 0.5 mM dithiothreitol, 0.2 M NaCl and 0.5 mM benzamidine. Its Tre6P synthase activity was determined at intervals using standard assay mixtures (containing 5 mM F6P) containing no or 4 mM K phosphate pH 6.8, and samples were prepared for SDS-PAGE analysis immediately before and 48 min after addition of the trypsin.
Intact trehalose synthase was prepared as in Example 1. Kinetic assays were done at 30° C. as described in General Methods and Materials.

Structure (SMILES)	effect on Tre6Pase activity (in the absence of phosphate, intact enzyme)	inhibition at 5000 µM (read-out: inhibition of Tre6Pase activity, 5 mM F6P, saturating phosphate concentrations, intact enzyme) [%]	inhibition at 5000 µM (read-out: inhibition of Tre6Pase activity, 5 mM F6P, sub-optimal phosphate concentrations, intact enzyme) [%]	EC50 (initial rates, intact enzyme, read-out: half maximal activation of Tre6Pase by phosphate) [µM]
O=C(CO)[C@@H](O)[C@H](O)[C@H](O)COP(=O)(O)O [Transformant F6P, Fructose 6-phosphate]	did not affect	10 to 15	20 to 30	–
O=P(O)(O)O [phosphate, K phosphate]	–	–	–	600
